According to ChEMBL document CHEMBL1154064, “Synthesis and DNA cleavage activity of 2-hydrazinyl-1,4,5,6-tetrahydropyrimidine containing hydroxy group” (2009):
Active and inactive are the calls of the source. No cut-off for these calls is given here.

Assays:
Nucleic Acid [1] = experiment: Binding affinity to Escherichia coli pUC19 DNA assessed as form 1 DNA level at 0.320 mM by agarose gel electrophoresis; format: nucleic-acid assay
Nucleic Acid [2] = experiment: Binding affinity to Escherichia coli pUC19 DNA assessed as form 2 DNA level at 0.698 mM after 3.72 hrs by agarose gel electrophoresis; format: nucleic-acid assay
Nucleic Acid [3] = experiment: Binding affinity to Escherichia coli pUC19 DNA assessed as form 2 DNA level at 0.130 mM after 8.08 hrs by agarose gel electrophoresis; format: nucleic-acid assay
Nucleic Acid [4] = experiment: Binding affinity to supercoiled Escherichia coli pUC19 DNA assessed as formation of nicked circular DNA at 1.10 mM at pH 6.0 for 24 hrs in presence of sodium azide by agarose gel electrophoresis; format: nucleic-acid assay
HeLa [5] = experiment: Growth inhibition of human HeLa cells at 1000 uM after 72 hrs by MTT assay; format: functional; set-up: scale not given: the % may be the effect or the level left
Nucleic Acid [6] = experiment: Binding affinity to Escherichia coli pUC19 DNA assessed as form 2 DNA level at 0.349 mM after 11.33 hrs by agarose gel electrophoresis; format: nucleic-acid assay
Nucleic Acid [7] = experiment: Binding affinity to Escherichia coli pUC19 DNA assessed as form 2 DNA level at 0.175 mM after 9.07 hrs by agarose gel electrophoresis; format: nucleic-acid assay
Nucleic Acid [8] = experiment: Binding affinity to Escherichia coli pUC19 DNA assessed as form 2 DNA level at 0.349 mM after 24.08 hrs by agarose gel electrophoresis; format: nucleic-acid assay
Nucleic Acid [9] = experiment: Binding affinity to Escherichia coli pUC19 DNA assessed as form 2 DNA level at 0.349 mM after 23.02 hrs by agarose gel electrophoresis; format: nucleic-acid assay
Nucleic Acid [10] = experiment: Binding affinity to Escherichia coli pUC19 DNA assessed as form 2 DNA level at 0.175 mM after 27.33 hrs by agarose gel electrophoresis; format: nucleic-acid assay
Nucleic Acid [11] = experiment: Binding affinity to Escherichia coli pUC19 DNA assessed as form 2 DNA level at 0.463 mM after 9.07 hrs by agarose gel electrophoresis; format: nucleic-acid assay
Nucleic Acid [12] = experiment: Binding affinity to Escherichia coli pUC19 DNA assessed as form 2 DNA level at 0.262 mM after 28.18 hrs by agarose gel electrophoresis; format: nucleic-acid assay
Nucleic Acid [13] = experiment: Binding affinity to Escherichia coli pUC19 DNA assessed as form 2 DNA level at 0.262 mM after 23.02 hrs by agarose gel electrophoresis; format: nucleic-acid assay
Nucleic Acid [14] = experiment: Binding affinity to Escherichia coli pUC19 DNA assessed as form 1 DNA level at 0.130 mM after 5.42 hrs by agarose gel electrophoresis; format: nucleic-acid assay
Nucleic Acid [15] = experiment: Binding affinity to Escherichia coli pUC19 DNA assessed as form 1 DNA level at 0.698 mM after 12.13 hrs by agarose gel electrophoresis; format: nucleic-acid assay
Nucleic Acid [16] = experiment: Binding affinity to Escherichia coli pUC19 DNA assessed as form 2 DNA level at 0.130 mM after 14 hrs by agarose gel electrophoresis; format: nucleic-acid assay
Nucleic Acid [17] = experiment: Binding affinity to Escherichia coli pUC19 DNA assessed as form 1 DNA level at 0.349 mM after 26.15 hrs by agarose gel electrophoresis; format: nucleic-acid assay
Nucleic Acid [18] = experiment: Binding affinity to Escherichia coli pUC19 DNA assessed as form 1 DNA level at 0.349 mM by agarose gel electrophoresis; format: nucleic-acid assay
Nucleic Acid [19] = experiment: Binding affinity to Escherichia coli pUC19 DNA assessed as form 1 DNA level at 0.698 mM after 8.45 hrs by agarose gel electrophoresis; format: nucleic-acid assay
Nucleic Acid [20] = experiment: Binding affinity to Escherichia coli pUC19 DNA assessed as form 2 DNA level at 0.698 mM after 14.22 hrs by agarose gel electrophoresis; format: nucleic-acid assay
Nucleic Acid [21] = experiment: Binding affinity to Escherichia coli pUC19 DNA assessed as form 2 DNA level at 0.175 mM by agarose gel electrophoresis; format: nucleic-acid assay
Nucleic Acid [22] = experiment: Binding affinity to Escherichia coli pUC19 DNA assessed as form 2 DNA level at 0.262 mM after 24.08 hrs by agarose gel electrophoresis; format: nucleic-acid assay
Nucleic Acid [23] = experiment: Binding affinity to Escherichia coli pUC19 DNA assessed as form 2 DNA level at 0.463 mM after 4.95 hrs by agarose gel electrophoresis; format: nucleic-acid assay
Nucleic Acid [24] = experiment: Binding affinity to Escherichia coli pUC19 DNA assessed as form 1 DNA level at 0.463 mM after 23.12 hrs by agarose gel electrophoresis; format: nucleic-acid assay
Nucleic Acid [25] = experiment: Binding affinity to Escherichia coli pUC19 DNA assessed as form 1 DNA level at 0.463 mM after 13.07 hrs by agarose gel electrophoresis; format: nucleic-acid assay
HeLa [26] = experiment: Growth inhibition of human HeLa cells at 10 uM after 72 hrs by MTT assay; format: functional; set-up: scale not given: the % may be the effect or the level left
HL-60 = experiment: Growth inhibition of human HL60 cells at 100 uM after 72 hrs by MTT assay; format: functional; set-up: scale not given: the % may be the effect or the level left
Nucleic Acid [27] = experiment: Binding affinity to Escherichia coli pUC19 DNA assessed as form 2 DNA level at 0.175 mM after 31.48 hrs by agarose gel electrophoresis; format: nucleic-acid assay
Nucleic Acid [28] = experiment: Binding affinity to Escherichia coli pUC19 DNA assessed as form 1 DNA level at 0.698 mM after 6.42 hrs by agarose gel electrophoresis; format: nucleic-acid assay
Nucleic Acid [29] = experiment: Binding affinity to Escherichia coli pUC19 DNA assessed as form 2 DNA level at 0.130 mM after 5.42 hrs by agarose gel electrophoresis; format: nucleic-acid assay
Nucleic Acid [30] = experiment: Binding affinity to Escherichia coli pUC19 DNA assessed as form 2 DNA level at 0.175 mM after 25.35 hrs by agarose gel electrophoresis; format: nucleic-acid assay
Nucleic Acid [31] = experiment: Binding affinity to Escherichia coli pUC19 DNA assessed as form 1 DNA level at 0.320 mM after 13.07 hrs by agarose gel electrophoresis; format: nucleic-acid assay
Nucleic Acid [32] = experiment: Binding affinity to Escherichia coli pUC19 DNA assessed as form 1 DNA level at 0.349 mM after 24.08 hrs by agarose gel electrophoresis; format: nucleic-acid assay
Nucleic Acid [33] = experiment: Binding affinity to Escherichia coli pUC19 DNA assessed as form 1 DNA level at 0.463 mM after 29.33 hrs by agarose gel electrophoresis; format: nucleic-acid assay
Nucleic Acid [34] = experiment: Binding affinity to Escherichia coli pUC19 DNA assessed as form 1 DNA level at 0.175 mM after 31.48 hrs by agarose gel electrophoresis; format: nucleic-acid assay
Nucleic Acid [35] = experiment: Binding affinity to Escherichia coli pUC19 DNA assessed as form 2 DNA level at 0.463 mM after 25.35 hrs by agarose gel electrophoresis; format: nucleic-acid assay
Nucleic Acid [36] = experiment: Binding affinity to Escherichia coli pUC19 DNA assessed as form 1 DNA level at 0.130 mM after 14 hrs by agarose gel electrophoresis; format: nucleic-acid assay
Nucleic Acid [37] = experiment: Binding affinity to Escherichia coli pUC19 DNA assessed as form 1 DNA level at 0.349 mM after 28.18 hrs by agarose gel electrophoresis; format: nucleic-acid assay
Nucleic Acid [38] = experiment: Binding affinity to Escherichia coli pUC19 DNA assessed as form 2 DNA level at 0.463 mM after 29.33 hrs by agarose gel electrophoresis; format: nucleic-acid assay
Nucleic Acid [39] = experiment: Binding affinity to supercoiled Escherichia coli pUC19 DNA assessed as formation of nicked circular DNA at 1.10 mM at pH 6.0 for 24 hrs in presence of potassium iodide by agarose gel electrophoresis; format: nucleic-acid assay
Nucleic Acid [40] = experiment: Binding affinity to Escherichia coli pUC19 DNA assessed as form 2 DNA level at 0.130 mM by agarose gel electrophoresis; format: nucleic-acid assay

Activity (Nucleic Acid [1]): 98.2%
Activity (Nucleic Acid [2]): 5.08%
Activity (Nucleic Acid [3]): 16.2%
Activity (Nucleic Acid [4]): inactive
Activity (Nucleic Acid [6]): 9.09%
Activity (Nucleic Acid [7]): 6.09%
Activity (Nucleic Acid [8]): 28.1%
Activity (Nucleic Acid [9]): 27.7%
Activity (Nucleic Acid [10]): 24%
Activity (Nucleic Acid [11]): 16.6%
Activity (Nucleic Acid [12]): 15.9%
Activity (Nucleic Acid [13]): 9.9%
Activity (Nucleic Acid [14]): 85%
Activity (Nucleic Acid [15]): 77%
Activity (Nucleic Acid [16]): 24.4%
Activity (Nucleic Acid [17]): 68.5%
Activity (Nucleic Acid [18]): 97.5%
Activity (Nucleic Acid [19]): 84.8%
Activity (Nucleic Acid [20]): 28.4%
Activity (Nucleic Acid [21]): 2.93%
Activity (Nucleic Acid [22]): 10.5%
Activity (Nucleic Acid [23]): 7.36%
Activity (Nucleic Acid [24]): 62%
Activity (Nucleic Acid [25]): 77.5%
Activity (Nucleic Acid [27]): 26%
Activity (Nucleic Acid [28]): 86.6%
Activity (Nucleic Acid [29]): 14.9%
Activity (Nucleic Acid [30]): 21.1%
Activity (Nucleic Acid [31]): 84.7%
Activity (Nucleic Acid [32]): 71.9%
Activity (Nucleic Acid [33]): 57.8%
Activity (Nucleic Acid [34]): 74%
Activity (Nucleic Acid [35]): 39.8%
Activity (Nucleic Acid [36]): 75.5%
Activity (Nucleic Acid [37]): 65.6%
Activity (Nucleic Acid [38]): 42.2%
Activity (Nucleic Acid [39]): inactive
Activity (Nucleic Acid [40]): 11.4%
Structure (SMILES): Cl.Cl.NNC1=NCC(O)CN1 (stereo unspecified)
Activity (HeLa [5]): 0%
Activity (HeLa [26]): 0%
Activity (HL-60): 70%
